Experimental data reported in US11453647B2, “Benzimidazole derivatives as adenosine receptor antagonists” (Merck Patent GmbH, priority 2017, dated 2022).

Assays:
Format in all cases: cell-based
[1] = target: T1, human A3 receptor (Homo sapiens, UniProt P0DMS8); assay: functional cAMP (HTRF) assay, recombinant CHO cells expressing human A3 receptor, forskolin, agonist IB-MECA
T1 construct: expressed in transfected cells; host or cells: CHO
T1 sequence (P0DMS8 1-318): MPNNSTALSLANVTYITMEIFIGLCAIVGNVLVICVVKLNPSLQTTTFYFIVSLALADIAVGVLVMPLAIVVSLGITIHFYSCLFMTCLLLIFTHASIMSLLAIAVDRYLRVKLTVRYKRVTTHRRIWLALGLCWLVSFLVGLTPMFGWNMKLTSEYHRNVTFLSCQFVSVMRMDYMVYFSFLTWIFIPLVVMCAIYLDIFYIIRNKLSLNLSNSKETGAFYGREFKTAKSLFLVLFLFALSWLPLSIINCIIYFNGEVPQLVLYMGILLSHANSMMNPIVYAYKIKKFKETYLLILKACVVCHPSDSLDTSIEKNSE
Method: The functional activities of human A2A, A2B, A1 and A3 receptors were determined by quantification of cAMP, being the second messenger for adenosine receptors.
For human A1 and A3 receptors, recombinant CHO cells, expressing either A1 or A3-receptor, were used. As both receptors couple to Gi proteins, the assay protocol was adapted:
Cells were seeded into 384-well plates, forskolin, test compounds and agonists (CPA for A1- and IB-MECA for A3-receptor) were added. After 30 min incubation, HTRF reagents (cAMP dynamic 2, Cis Bio) were added and the cellular cAMP levels were determined using the ENVISION (Perkin Elmer) plate reader. Obtained raw data were normalized against the inhibitor control and the neural control (DMSO) and the normalized data were fitted using GeneData software.

[2] = target: T2, A2B receptors (Homo sapiens, UniProt P29275); assay: functional cAMP (HTRF) assay, recombinant HEK293 cells expressing human A2B receptor, agonist NECA; design: expressed in transfected cells; host or cells: HEK293
T2 sequence (P29275 1-332): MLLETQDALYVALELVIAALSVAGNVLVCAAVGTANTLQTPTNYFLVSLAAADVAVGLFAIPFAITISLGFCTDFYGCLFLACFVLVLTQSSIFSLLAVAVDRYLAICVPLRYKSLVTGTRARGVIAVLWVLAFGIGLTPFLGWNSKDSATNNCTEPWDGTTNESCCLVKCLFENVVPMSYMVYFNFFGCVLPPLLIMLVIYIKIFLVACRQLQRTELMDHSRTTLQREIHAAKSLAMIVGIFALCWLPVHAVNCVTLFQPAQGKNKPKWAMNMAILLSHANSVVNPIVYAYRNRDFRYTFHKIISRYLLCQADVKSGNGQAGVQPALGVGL

[3] = target: T3, human A2A receptor (Homo sapiens, UniProt P29274); assay: functional cAMP (HTRF) assay, recombinant HEK293 cells expressing human A2A receptor, agonist NECA
T3 construct: expressed in transfected cells; host or cells: HEK293
T3 sequence (P29274 whole entry): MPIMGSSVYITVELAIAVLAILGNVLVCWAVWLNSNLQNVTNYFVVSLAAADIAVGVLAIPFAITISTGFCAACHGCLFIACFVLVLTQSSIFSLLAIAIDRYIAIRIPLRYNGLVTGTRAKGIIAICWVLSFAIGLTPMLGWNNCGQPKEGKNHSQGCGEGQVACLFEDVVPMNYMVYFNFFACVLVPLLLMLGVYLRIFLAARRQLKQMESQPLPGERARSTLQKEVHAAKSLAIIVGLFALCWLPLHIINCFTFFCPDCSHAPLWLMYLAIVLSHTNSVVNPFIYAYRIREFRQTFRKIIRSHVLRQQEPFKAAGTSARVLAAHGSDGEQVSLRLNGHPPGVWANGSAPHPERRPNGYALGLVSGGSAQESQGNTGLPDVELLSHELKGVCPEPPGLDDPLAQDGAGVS

Structure (SMILES)	IC50 [1]	IC50 [2]	IC50 [3]
CCCNC(=O)c1ccc(C(=O)Nc2nc3c(OC)ccc(-c4ccccc4)c3[nH]2)cc1 [compound 293, N1-(4-methoxy-7-phenyl-1H-1,3-benzodiazol-2-yl)-N4-propylbenzene-1,4-dicarboxamide]	< 1000 nM	< 100 nM	< 100 nM
COc1ccc(-c2ccccc2)c2nc(NC(=O)c3cnc4cccnn34)[nH]c12 [compound 288, N-(7-methoxy-4-phenyl-1H-1,3-benzodiazol-2-yl)imidazo[1,2-b]pyridazine-3-carboxamide]	< 1000 nM	< 100 nM	< 100 nM
COc1ccc(C2CCOCC2)c2nc(NC(=O)c3cccc(N=S(C)(C)=O)c3)[nH]c12 [compound 263, 3-{[dimethyl(oxo)-lambda6-sulfanylidene]amino}-N-[7-methoxy-4-(oxan-4-yl)-1H-1,3-benzodiazol-2-yl]benzamide]	> 1000 nM		< 100 nM
COc1ccc(C2CCCCC2)c2nc(NC(=O)c3ccnc(N4CCOCC4)c3)[nH]c12 [compound 17, N-(4-Cyclohexyl-7-methoxy-1H-benzoimidazol-2-yl)-2-morpholin-4-yl-isonicotinamide]	< 1000 nM	> 1000 nM	< 10 nM
COc1ccc(-c2ccccc2)c2nc(NC(=O)N3CCC(C)CC3)[nH]c12 [compound 28, 4-Methyl-piperidine-1-carboxylic acid (7-methoxy-4-phenyl-1H-benzoimidazol-2-yl)-amide]	< 1000 nM	< 1000 nM	< 10 nM
COc1ccc(-c2ccccc2)c2nc(NC(=O)c3c[nH]c(-c4ccncc4)n3)[nH]c12 [compound 290, N-(7-methoxy-4-phenyl-1H-1,3-benzodiazol-2-yl)-2-(pyridin-4-yl)-1H-imidazole-4-carboxamide]		< 100 nM	< 100 nM
COc1ccc(C2CCOCC2)c2nc(NC(=O)c3ccc(N4C(=O)CCC4=O)cc3)[nH]c12 [compound 250, 4-(2,5-dioxopyrrolidin-1-yl)-N-[7-methoxy-4-(oxan-4-yl)-1H-1,3-benzodiazol-2-yl]benzamide]	> 1000 nM	< 100 nM	< 10 nM
COc1ccc(-c2cnn(C)c2)c2nc(NC(=O)c3cnc(C)o3)[nH]c12 [compound 215, N-[7-methoxy-4-(1-methyl-1H-pyrazol-4-yl)-1H-1,3-benzodiazol-2-yl]-2-methyl-1,3-oxazole-5-carboxamide]		< 100 nM	< 10 nM
COc1ccc(-c2cnn(C)c2)c2nc(NC(=O)N[C@@H]3CNC[C@@H]3F)[nH]c12 [compound 249, 1-[(3R,4S)-4-fluoropyrrolidin-3-yl]-3-[7-methoxy-4-(1-methyl-1H-pyrazol-4-yl)-1H-1,3-benzodiazol-2-yl]urea]			< 100 nM
COCCn1cc(C(=O)Nc2nc3c(-c4ccc5cc[nH]c5c4)ccc(OC)c3[nH]2)cn1 [compound 280, N-[4-(1H-indol-6-yl)-7-methoxy-1H-1,3-benzodiazol-2-yl]-1-(2-methoxyethyl)-1H-pyrazole-4-carboxamide]		< 100 nM	< 100 nM
COc1ccc(-c2ccccc2)c2nc(NC(=O)c3cnc4ncccn34)[nH]c12 [compound 289, N-(7-methoxy-4-phenyl-1H-1,3-benzodiazol-2-yl)imidazo[1,2-a]pyrimidine-3-carboxamide]		< 10 nM	< 100 nM
COc1ccc(-c2cccc(F)c2)c2nc(NC(=O)c3cnn(C)c3)[nH]c12 [compound 239, N-[4-(3-fluorophenyl)-7-methoxy-1H-1,3-benzodiazol-2-yl]-1-methyl-1H-pyrazole-4-carboxamide]		< 10 nM	< 10 nM
COc1ccc(-c2cnn(C)c2)c2nc(NC(=O)C3CNC(=O)C3)[nH]c12 (stereo not drawn) [compound 246, N-[7-methoxy-4-(1-methyl-1H-pyrazol-4-yl)-1H-1,3-benzodiazol-2-yl]-5-oxopyrrolidine-3-carboxamide]	> 1000 nM		< 100 nM
COc1ccc(-c2ccccc2)c2nc(NC(=O)c3cnc4ccccn34)[nH]c12 [compound 286, N-(7-methoxy-4-phenyl-1H-1,3-benzodiazol-2-yl)imidazo[1,2-a]pyridine-3-carboxamide]		< 100 nM	< 100 nM
COc1ccc(-c2cnn(CC(C)(C)O)c2)c2[nH]c(NC(=O)N3CCC(C)(O)CC3)nc12 [compound 238, 4-hydroxy-N-{7-[1-(2-hydroxy-2-methylpropyl)-1H-pyrazol-4-yl]-4-methoxy-1H-1,3-benzodiazol-2-yl}-4-methylpiperidine-1-carboxamide]	> 1000 nM		< 100 nM
COc1ccc(-c2cnn(C)c2)c2nc(NC(=O)NCc3nccs3)[nH]c12 [compound 247, 3-[7-methoxy-4-(1-methyl-1H-pyrazol-4-yl)-1H-1,3-benzodiazol-2-yl]-1-[(1,3-thiazol-2-yl)methyl]urea]	> 1000 nM		< 100 nM

Results, then the compound that gave them:

IC50 [1]	IC50 [2]	IC50 [3]	Structure (SMILES)
< 1000 nM	< 10 nM	< 100 nM	COc1ccc(-c2ccccc2)c2[nH]c(NC(=O)c3ccc(C(=O)N(C)CCN(C)C)cc3)nc12 [compound 296, N1-[2-(dimethylamino)ethyl]-N4-(4-methoxy-7-phenyl-1H-1,3-benzodiazo1-2-yl)-N1-methylbenzene-1,4-dicarboxamide]
	< 100 nM	< 100 nM	COc1cc(C#N)c(-c2ccccc2)c2nc(NC(=O)c3cnn(C)c3)[nH]c12 [compound 300, N-(5-cyano-7-methoxy-4-phenyl-1H-1,3-benzodiazol-2-yl)-1-methyl-1H-pyrazole-4-carboxamide]
< 1000 nM	< 10 nM	< 100 nM	COc1ccc(-c2ccccc2)c2nc(NC(=O)c3ccc(CN4CCCC4=O)cc3)[nH]c12 [compound 311, N-(7-methoxy-4-phenyl-1H-1,3-benzodiazol-2-yl)-4-[(2-oxopyrrolidin-1-yl)methyl]benzamide]
	< 100 nM	< 100 nM	COc1ccc(-c2ccnc(C)c2)c2[nH]c(NC(=O)c3c[nH]cn3)nc12 [compound 299, N-[4-methoxy-7-(2-methylpyridin-4-yl)-1H-1,3-benzodiazol-2-yl]-1H-imidazole-4-carboxamide]
< 1000 nM		< 100 nM	COCCn1cc(C(=O)Nc2nc3c(-c4ccn5ccnc5c4)ccc(OC)c3[nH]2)cn1 [compound 301, N-(4-{imidazo[1,2-a]pyridin-7-yl}-7-methoxy-1H-1,3-benzodiazol-2-yl)-1-(2-methoxyethyl)-1H-pyrazole-4-carboxamide]
	< 100 nM	< 100 nM	COc1ccc(-c2ccccc2)c2nc(NC(=O)c3cnc(C)o3)[nH]c12 [compound 308, N-(7-methoxy-4-phenyl-1H-1,3-benzodiazol-2-yl)-2-methyl-1,3-oxazole-5-carboxamide]
	< 10 nM	< 100 nM	COCCn1cc(C(=O)Nc2nc3c(-c4ccccc4)ccc(OC)c3[nH]2)cn1 [compound 307, N-(7-methoxy-4-phenyl-1H-1,3-benzodiazol-2-yl)-1-(2-methoxyethyl)-1H-pyrazole-4-carboxamide]
	< 100 nM	< 100 nM	COCCn1cc(C(=O)Nc2nc3c(-c4ccc5[nH]ccc5c4)ccc(OC)c3[nH]2)cn1 [compound 302, N-[4-(1H-indol-5-yl)-7-methoxy-1H-1,3-benzodiazol-2-yl]-1-(2-methoxyethyl)-1H-pyrazole-4-carboxamide]
> 1000 nM		< 100 nM	COc1ccc(-c2ccc3[nH]ccc3c2)c2nc(NC(=O)N3CCC(C)(O)CC3)[nH]c12 [compound 303, 4-hydroxy-N-[4-(1H-indol-5-yl)-7-methoxy-1H-1,3-benzodiazol-2-yl]-4-methylpiperidine-1-carboxamide]
	< 10 nM	< 100 nM	COc1ccc(-c2ccccc2)c2nc(NC(=O)c3ccc(C(=O)N(C)C)cc3)[nH]c12 [compound 309, N4-(7-methoxy-4-phenyl-1H-1,3-benzodiazol-2-yl)-N1,N1-dimethylbenzene-1,4-dicarboxamide]
	< 10 nM	< 100 nM	COc1ccc(-c2ccccc2)c2nc(NC(=O)c3cnn(C)c3)[nH]c12 [compound 306, N-(7-methoxy-4-phenyl-1H-1,3-benzodiazol-2-yl)-1-methyl-1H-pyrazole-4-carboxamide]
